From the METLIN SMRT retention time set (Domingo-Almenara et al. 2019)

Assay: gradient 5% acetonitrile 3 min, to 50% in 2 min, to 85% in 15 min, held 3 min, 100 µL/min
Details: column: Zorbax Extend-C18 2.1 x 50 mm; eluents: water / acetonitrile, 0.1% formic acid
How it was run: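 Each retention time is based on an adduct peak selected computationally and verified by manual inspection. Measurements used HPLC–quadrupole time-of-flight mass spectrometry in positive and negative ionization mode on mixtures of ~100 pure standards. Chromatography ran on a Zorbax Extend-C18 column (2.1 × 50 mm, 1.8 μm) at 100 μL/min with water and acetonitrile, each containing 0.1% formic acid, and dead and dwell volumes of 40 μL and 900 μL.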

Row | Structure (SMILES) | RP-LC retention time
1 | Cc1nnc([C@@H]2CC(F)(F)CN2C(=O)Cc2c[nH]c3ccccc23)o1 | 723 s
2 | COC(=O)[C@@H](N)CSC/C=C(\C)CC/C=C(\C)CCC=C(C)C | 961 s
3 | Nc1ncnc2c1ncn2C1CCCO1 (configuration not stated) | 580 s
4 | CCN(CCNC(=O)c1ccc2[nH]c3c(c2c1)CN(C(C)=O)CC3)c1ccccc1 | 1160 s
5 | Cc1ccc(C)c(Nc2c(-c3cc(Br)ccc3O)nc3ncccn23)c1 | 1100 s
6 | CCn1cc(C(=O)Nc2ccc(Cl)cc2)c2cccnc21 | 931 s
7 | Cc1nc(-c2noc(-c3ccc(F)cc3)n2)cn1CC(=O)Nc1ccccc1 | 836 s
8 | CCCCCn1c(=O)c2ccccc2n(Cc2nc(-c3ccc(F)c(Cl)c3)no2)c1=O | 1290 s
9 | COc1ccc(N2CC(c3nc(-c4cccc(Cl)c4)no3)CC2=O)cc1OC (configuration not stated) | 951 s
10 | CN(CCc1noc(-c2ccc(Cl)cc2)n1)C(=O)Nc1ccccc1F | 952 s
11 | O=C(c1ccc[nH]1)N1CCC2(CC1)N=C(c1ccc(Cl)cc1)NO2 | 776 s
12 | O=C(NCCCn1c(-c2ccncc2)nc2cccnc21)Nc1cccc(C(F)(F)F)c1 | 725 s
13 | O=C(CCc1nc2ccccc2s1)N1[C@H]2CC[C@@H]1c1cnc(-c3ccccc3)nc1C2 | 902 s
14 | COc1ccc(CN2CC(=O)N(c3cccc(C)c3)[C@@H]3CS(=O)(=O)C[C@@H]32)cc1 | 788 s
15 | COc1ccccc1-c1ccc(SCC(=O)Nc2ccc3c(c2)OCCO3)nn1 | 792 s
16 | O=c1c2nnc3ccnn3c2ccn1CCc1c[nH]c2ccc(F)cc12 | 709 s
17 | Cc1ccc(NC(=O)Nc2ccccc2)c(=O)n1CC(=O)NCC1CCCO1 (configuration not stated) | 697 s
18 | CCc1ccc(N2CC(c3noc(-c4ccc(C)cc4)n3)CC2=O)cc1 (configuration not stated) | 1170 s
19 | O=C(c1cc(C2CC2)[nH]n1)N1CCC(F)(F)C(COCC2CC2)C1 (configuration not stated) | 805 s
20 | Cc1sc2ccn(CC(C)C)c(=O)c2c1C(=O)N(C)Cc1ccccc1 | 917 s
21 | C[n+]1ccc(Nc2ccc(NC(=O)c3ccc(Nc4cc[n+](C)c5ccc([N+](=O)[O-])cc45)cc3[N+](=O)[O-])cc2)cc1 | 1080 s
22 | CCOC(=O)CCC(=O)NCCN1CCN(c2ccccc2)CC1 | 564 s

Row | Structure (SMILES) | RP-LC retention time
23 | CNC(=O)c1ccccc1C(=O)NCCc1nc(-c2cnccn2)no1 | 555 s
24 | COc1cc(-c2noc(Cn3ncn4nc(-c5cccs5)cc4c3=O)n2)cc(OC)c1OC | 983 s
25 | COc1ccc(CNC(=O)N(Cc2ccsc2)CC(F)(F)F)cc1OC | 812 s
26 | CCOC(=O)C1CCN(c2cc3c(cc2NC(=O)NC(C)C)n(C)c(=O)n3C)CC1 | 713 s
27 | CC(C)n1cnc2c(NCCc3ccc(O)cc3)nc(-c3csc4ccccc34)nc21 | 1160 s
28 | Cc1oc2cc3oc(=O)c(CC(=O)N[C@@H](Cc4c[nH]c5ccccc45)C(=O)O)c(C)c3cc2c1C | 863 s
29 | CCOC(=O)c1cnc(Nc2nc(C)c3cc(C)cc(C)c3n2)nc1C | 657 s
30 | O=C(Nc1ccnn1Cc1ccco1)c1cc(=O)c2cc(Cl)ccc2o1 | 830 s
31 | CS(=O)(=O)N1C[C@H]2CCN(Cc3ccc(Cl)cc3F)C[C@H]21 | 599 s
32 | O=C1CC(c2nc(-c3ccc(Cl)cc3)no2)CN1c1ccc(F)cc1 (configuration not stated) | 1000 s
33 | CCCNC(=O)CN1C(=O)CC(c2ccc(Br)s2)=Nc2ccccc21 | 913 s
34 | CC(C)n1nc(CNC(=O)Cc2ccsc2)c2ccccc21 | 850 s
35 | Cc1ccc(C)c(NC(=O)NCC2CCOCC2)c1 | 705 s
36 | COc1ccc(-c2nc3cnccn3c2Nc2ccc(C(N)=O)cc2)cc1OC | 593 s
37 | COC(=O)C1=CN(c2cccc(C)c2)c2ccccc2S1(=O)=O | 849 s
38 | O=C(Nc1ccc(-c2nc(-c3ccc(F)cc3)no2)cc1)c1ccco1 | 1100 s
39 | CC(C)CCN1CCC(N2CCN(C(=O)C3CCCC3)CC2)C1=O (configuration not stated) | 585 s
40 | O=C(NC1CN2CCC1CC2)c1cc2ccoc2cn1 (configuration not stated) | 620 s
41 | O=c1c2cnc3nc(-c4ccccc4Cl)nn3c2ccn1CCc1c[nH]c2ccc(F)cc12 | 947 s
42 | COc1ccc(C(=C2C(=O)Nc3ccccc32)c2ccc(OC)cc2)cc1 | 974 s
43 | O=c1ccc(-c2ccccc2)nn1CCc1nc(-c2ccccc2Br)no1 | 965 s

Results, then the compound that gave them:

Row | RP-LC retention time | Structure (SMILES)
44 | 653 s | CCc1nc2ccc(-c3noc(CNS(=O)(=O)c4ccccc4)n3)cc2n1CC
45 | 1200 s | CCN(CC)S(=O)(=O)c1ccc(C)c(-c2nnc(-c3ccc(Cl)cc3)o2)c1
46 | 557 s | FC(F)(F)c1nc2ccccc2n1CC1CCN(Cc2cn3ccccc3n2)CC1
47 | 709 s | CCc1noc(-c2cccnc2N2CCCN(Cc3ccc(Cl)cc3)CC2)n1
48 | 788 s | O=C(c1cccs1)N1CC(C(=O)N2CCN(c3ccccc3Cl)CC2)C1
49 | 896 s | Cc1ccc([N+](=O)[O-])cc1NC(=O)Cc1cc(-c2ccc(F)cc2)on1
50 | 760 s | Cc1ccc(NC(=O)Nc2ccc(NC(=O)N3CCCC(C(=O)NC(C)C)C3)cc2)cc1 (configuration not stated)
51 | 998 s | Cc1ccc(CNC(=O)C2CCN(S(=O)(=O)c3cc(-c4noc(C5CC5)n4)cs3)CC2)cc1
52 | 956 s | CC1CCN(c2nc(C(=O)N3CCN(c4ccccc4)CC3)nc3c2cnn3C)CC1
53 | 770 s | CCN1CCCn2cc(S(=O)(=O)Nc3cccc(Cl)c3)cc2C1=O
54 | 946 s | O=C(Nc1ccc(F)cc1F)N1CCCC1c1nc(-c2ccc(F)cc2F)no1 (configuration not stated)
55 | 838 s | Cc1ccccc1CN1C(=O)CN(S(C)(=O)=O)CC1(C)C(=O)NCc1ccccc1 (configuration not stated)
56 | 1010 s | CN(Cc1ccco1)S(=O)(=O)c1ccc(C(=O)Nc2cccc(Cl)c2Cl)cc1
57 | 917 s | Cc1ccc(S(=O)(=O)N2CCC(CC(=O)NC(C)c3ccccc3)CC2)cc1 (configuration not stated)
58 | 619 s | CCCCC(=O)Nc1cnc(N2CCNCC2)c(C(=O)N2CCCCC2C)c1 (configuration not stated)
59 | 900 s | CCc1csc(-c2ccc(N3CCN(C(=O)c4cccs4)CC3)nc2)n1
60 | 875 s | CC(C)NC(=O)c1ccc(OCC2CCCN(C(=O)Cc3ccccc3F)C2)cc1 (configuration not stated)
61 | 652 s | CC(C)C(=O)N1CCc2cc(CNS(=O)(=O)Cc3ccccc3)ccc21
62 | 642 s | CCOC(=O)CNC(=O)N1CCC(n2c(-c3ccc(C)cc3)nc3cccnc32)C1 (configuration not stated)
63 | 737 s | Cc1ccc(C2=NC3(CCN(C(=O)c4ccsc4)CC3)ON2)cc1
64 | 768 s | COc1ccc(CC(=O)N2C[C@@H]3C[C@H]2C[C@@H]3NS(=O)(=O)c2ccccc2)cc1
65 | 715 s | CCOC(=O)c1c(C)[nH]c(C(=O)N2CCC(C(C)C(=O)N3CCCC3)CC2)c1C (configuration not stated)

Row | RP-LC retention time | Structure (SMILES)
66 | 1090 s | Cc1sc(-c2noc(C(C)C)n2)cc1S(=O)(=O)N1CCC(C(=O)NC2CCCCC2)CC1
67 | 631 s | COc1ccc(OC)c(NC(=O)N2CCC(n3c(C)nc4cccnc43)CC2)c1
68 | 787 s | CN1C(=O)C2(CCN(C(=O)c3ccccc3Cl)C2)c2ccccc21 (configuration not stated)
69 | 795 s | CN1c2cc(Cl)ccc2C(=O)NC12CCN(C(=O)Nc1ccccc1)CC2
70 | 762 s | COc1cccc(C(=O)N2CCC3(CC2)NC(=O)c2cc(F)ccc2N3C)c1
71 | 898 s | Cc1ccccc1C(=O)Nc1nc(-c2ccc3c(c2)NC(=O)CO3)c(C)s1
72 | 848 s | CC(C)CN1CCn2cc(S(=O)(=O)Nc3ccc(Cl)cc3)cc2C1=O
73 | 939 s | CC1CCCN(C(=O)c2cn(-c3ccc(S(=O)(=O)N4CCCC(C)C4)cn3)cn2)C1 (configuration not stated)
74 | 846 s | COc1ccc(C(=O)N2CCCC(COc3ccc(C(=O)NC(C)C)cc3)C2)cc1F (configuration not stated)
75 | 693 s | O=C(Nc1nccs1)C1CCCN(c2ccc3cc(S(=O)(=O)N4CCCC4)ccc3n2)C1 (configuration not stated)
76 | 727 s | Cc1ccccc1NC(=O)N1CCC2(C1)C(=O)Nc1ccccc12 (configuration not stated)
77 | 827 s | Cc1nn2c(CNS(=O)(=O)c3ccccc3C)c(-c3ccccc3)nc2s1
78 | 772 s | O=C(Cn1cccc1-c1nc(-c2ccc(Cl)cc2)cs1)N1CCN(c2ccccn2)CC1
79 | 581 s | CCc1nc2nc3c(c(N4CCN(c5ccccn5)CC4)n2n1)CCC3
80 | 1100 s | CCNS(=O)(=O)c1cccc(-c2nc(-c3ccc(C)cc3)no2)c1
81 | 1060 s | COc1ccc(N2CCN(c3cc(SCC(=O)Nc4ccc(F)c(Cl)c4)ncn3)CC2)cc1
82 | 623 s | Cc1cc(C)n(-c2ccc(=O)n(CC(=O)N3CCN(c4ncccn4)CC3)n2)n1
83 | 735 s | Cc1cc(C)cc(C(=O)N2CCN(c3nc(C)cc(N4CCCC4)n3)CC2)c1
84 | 662 s | O=C(c1ccccc1F)N1CCC2(C1)C(=O)Nc1ccccc12 (configuration not stated)
85 | 1160 s | Cc1ccc(-c2nnc(-c3nn(C)c4c3CN(S(=O)(=O)c3c(C)cc(C)cc3C)CC4)o2)cc1
86 | 744 s | CCn1cc(CN2CCC(C(=O)NCc3cccc(Cl)c3)CC2)c2cc(OC)ccc21
87 | 752 s | O=C(NC1CCN(c2cc(-c3ccccc3)[nH]n2)C1)c1ccc(Br)cc1 (configuration not stated)
